The values below are quoted from earlier work in patent publication US20040247689A1, “Process for preparing a pharmaceutical active ingredient with high specific surface area” (priority 2003, published 2004).

As for `OCc1cc(C(O)CNCCCCCCOCCCCc2ccccc2)ccc1O` (centres unmarked) [salmeterol xinafoate], where the note is “chloroform”, the solubility in chloroform entry was “slightly soluble”. Moreover, the solubility in ethanol result (ethanol) is listed as “slightly soluble”. Under “isopropanol”, the solubility in isopropanol result is “slightly soluble”. Moreover, the solubility in methanol result (methanol) is given as “freely soluble”. The solubility in water entry (water) is “sparingly soluble”.
